Measurements taken from ChEMBL document CHEMBL1201862, “PubChem BioAssay data set” (2004).
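Dose response: 5 concentrations. Exposure: 48 h. Format: 96-well plates. Endpoint: linear interpolation; highest concentration if not reached. Here, GI50 denotes the concentration required for 50% inhibition of growth.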 Activity calls are given as the source filed them. No stated cut-off is given here; in the data, active = GI50 up to about 1.1 µM and inactive = higher.

Columns and labels:
Assay in all cases: inhibition of tumour cell growth, NCI panel, 48 h
EKVX = tested on: EKVX
Hs-578T = tested on: Hs-578T
K562 = tested on: K562
SK-MEL-5 = tested on: SK-MEL-5
NCI/ADR-RES = tested on: NCI/ADR-RES
SNB-75 = tested on: SNB-75
SF-268 = tested on: SF-268
SR = tested on: SR
NCI-H23 = tested on: NCI-H23
Malme-3M = tested on: Malme-3M
U-251 = tested on: U-251
A498 = tested on: A498
CAKI-1 = tested on: CAKI-1
SN12C = tested on: SN12C
UACC-62 = tested on: UACC-62
KM12 = tested on: KM12
MOLT-4 = tested on: MOLT-4
SNB-19 = tested on: SNB-19
HOP-62 = tested on: HOP-62
NCI-H226 = tested on: NCI-H226
SK-MEL-2 = tested on: SK-MEL-2
UACC-257 = tested on: UACC-257
NCI-H460 = tested on: NCI-H460
NCI-H522 = tested on: NCI-H522
SW-620 = tested on: SW-620
SF-539 = tested on: SF-539
CCRF-CEM = tested on: CCRF-CEM
DU-145 = tested on: DU-145
UO-31 = tested on: UO-31
ACHN = tested on: ACHN
HCT-15 = tested on: HCT-15
SF-295 = tested on: SF-295
COLO 205 = tested on: COLO 205
MDA-MB-231 = tested on: MDA-MB-231
SK-OV-3 = tested on: SK-OV-3
MDA-N = tested on: MDA-N
IGROV-1 = tested on: IGROV-1
M14 = tested on: M14
OVCAR-4 = tested on: OVCAR-4
T47D = tested on: T47D
OVCAR-3 = tested on: OVCAR-3
TK-10 = tested on: TK-10
SK-MEL-28 = tested on: SK-MEL-28
786-0 = tested on: 786-0
MCF7 = tested on: MCF7
HCT-116 = tested on: HCT-116
BT-549 = tested on: BT-549
OVCAR-8 = tested on: OVCAR-8
OVCAR-5 = tested on: OVCAR-5
PC-3 = tested on: PC-3
HCC 2998 = tested on: HCC 2998
A549 = tested on: A549
HL-60 = tested on: HL-60
RXF 393 = tested on: RXF 393
HT-29 = tested on: HT-29
RPMI-8226 = tested on: RPMI-8226
LOX IMVI = tested on: LOX IMVI

How did the GI50 (EKVX) turn out when Cc1ccc(S(=O)(=O)NC(=O)NC2=NC(C)(C)N(c3ccc(Cl)c(Cl)c3)C(N)=N2)cc1 was run?
Its GI50 is > 100 µM (inactive).

What about the GI50 (Hs-578T) of the same compound?
Its GI50 is 47.8 µM (inactive).

What about the GI50 (K562) of the same compound?
Its GI50 is 1.94 µM (inactive).

What about the GI50 (SK-MEL-5) of the same compound?
The GI50 was 18.3 µM (inactive).

What about the GI50 (NCI/ADR-RES) of the same compound?
Its GI50 is > 100 µM (inactive).

And the GI50 (SNB-75)?
The GI50 was 31.6 µM (inactive).

And the GI50 (SF-268)?
Its GI50 is 20.5 µM (inactive).

What about the GI50 (SR) of the same compound?
The GI50 was 8.75 µM (inactive).

And the GI50 (NCI-H23)?
Its GI50 is 11.4 µM (inactive).

What about the GI50 (Malme-3M) of the same compound?
Its GI50 is 4.01 µM (inactive).

And the GI50 (U-251)?
Its GI50 is 5.68 µM (inactive).

What about the GI50 (A498) of the same compound?
The GI50 was > 100 µM (inactive).

And the GI50 (CAKI-1)?
The GI50 was 49.5 µM (inactive).

And the GI50 (SN12C)?
Its GI50 is 20.6 µM (inactive).

What about the GI50 (UACC-62) of the same compound?
The GI50 was 7.59 µM (inactive).

And the GI50 (KM12)?
The GI50 was 65.8 µM (inactive).

What about the GI50 (MOLT-4) of the same compound?
The GI50 was 7.43 µM (inactive).

And the GI50 (SNB-19)?
Its GI50 is 97.9 µM (inactive).

What about the GI50 (HOP-62) of the same compound?
The GI50 was 7.59 µM (inactive).

What about the GI50 (NCI-H226) of the same compound?
The GI50 was 67.8 µM (inactive).

And the GI50 (SK-MEL-2)?
Its GI50 is > 100 µM (inactive).

What about the GI50 (UACC-257) of the same compound?
Its GI50 is 36 µM (inactive).

What about the GI50 (NCI-H460) of the same compound?
Its GI50 is 36 µM (inactive).

And the GI50 (NCI-H522)?
The GI50 was > 100 µM (inactive).

And the GI50 (SW-620)?
The GI50 was 4.66 µM (inactive).

What about the GI50 (SF-539) of the same compound?
Its GI50 is 29.2 µM (inactive).

What about the GI50 (CCRF-CEM) of the same compound?
Its GI50 is 4.74 µM (inactive).

What about the GI50 (DU-145) of the same compound?
The GI50 was 64.4 µM (inactive).

What about the GI50 (UO-31) of the same compound?
Its GI50 is > 100 µM (inactive).

And the GI50 (ACHN)?
Its GI50 is 11.1 µM (inactive).

What about the GI50 (HCT-15) of the same compound?
Its GI50 is 61.2 µM.

What about the GI50 (SF-295) of the same compound?
The GI50 was 41.5 µM (inactive).

And the GI50 (COLO 205)?
Its GI50 is 10.2 µM (inactive).

What about the GI50 (MDA-MB-231) of the same compound?
The GI50 was 7.98 µM (inactive).

What about the GI50 (SK-OV-3) of the same compound?
Its GI50 is > 100 µM (inactive).

What about the GI50 (MDA-N) of the same compound?
Its GI50 is 5.04 µM (inactive).

And the GI50 (IGROV-1)?
The GI50 was 19 µM (inactive).

And the GI50 (M14)?
The GI50 was 17.6 µM (inactive).

And the GI50 (OVCAR-4)?
The GI50 was > 100 µM (inactive).

And the GI50 (T47D)?
The GI50 was 10.4 µM (inactive).

What about the GI50 (OVCAR-3) of the same compound?
The GI50 was > 100 µM (inactive).

What about the GI50 (TK-10) of the same compound?
The GI50 was 84.7 µM (inactive).

What about the GI50 (SK-MEL-28) of the same compound?
The GI50 was > 100 µM (inactive).

What about the GI50 (786-0) of the same compound?
The GI50 was 8.3 µM (inactive).

What about the GI50 (MCF7) of the same compound?
Its GI50 is 25.8 µM (inactive).

What about the GI50 (HCT-116) of the same compound?
The GI50 was 3.72 µM (inactive).

What about the GI50 (BT-549) of the same compound?
The GI50 was > 100 µM (inactive).

What about the GI50 (OVCAR-8) of the same compound?
The GI50 was 9.89 µM (inactive).

What about the GI50 (OVCAR-5) of the same compound?
Its GI50 is > 100 µM (inactive).

What about the GI50 (PC-3) of the same compound?
The GI50 was 0.552 µM (active).

What about the GI50 (HCC 2998) of the same compound?
Its GI50 is 15.9 µM (inactive).

And the GI50 (A549)?
The GI50 was 2.92 µM (inactive).

What about the GI50 (HL-60) of the same compound?
The GI50 was 29.5 µM (inactive).

What about the GI50 (RXF 393) of the same compound?
Its GI50 is 66.7 µM (inactive).

And the GI50 (HT-29)?
Its GI50 is 28.7 µM (inactive).

C=C(C)[C@@]1(OC(=O)c2cc([N+](=O)[O-])cc([N+](=O)[O-])c2)C[C@@H]2CCCC[C@@H]21 was tested. Which GI50 (EKVX) did it give?
Its GI50 is 37.2 µM (inactive).

And the GI50 (Hs-578T)?
The GI50 was > 100 µM (inactive).

What about the GI50 (K562) of the same compound?
Its GI50 is > 100 µM (inactive).

And the GI50 (SK-MEL-5)?
The GI50 was > 10 µM (inactive).

What about the GI50 (NCI/ADR-RES) of the same compound?
Its GI50 is > 100 µM (inactive).

What about the GI50 (SNB-75) of the same compound?
Its GI50 is > 100 µM (inactive).

What about the GI50 (RPMI-8226) of the same compound?
Its GI50 is 45.4 µM (inactive).

What about the GI50 (SF-268) of the same compound?
Its GI50 is > 100 µM (inactive).

What about the GI50 (SR) of the same compound?
The GI50 was > 100 µM (inactive).

And the GI50 (NCI-H23)?
Its GI50 is > 100 µM (inactive).

And the GI50 (Malme-3M)?
The GI50 was 34.2 µM (inactive).

And the GI50 (U-251)?
The GI50 was > 100 µM (inactive).

What about the GI50 (CAKI-1) of the same compound?
Its GI50 is > 100 µM (inactive).

And the GI50 (SN12C)?
The GI50 was > 100 µM (inactive).

What about the GI50 (UACC-62) of the same compound?
Its GI50 is > 100 µM (inactive).

What about the GI50 (KM12) of the same compound?
The GI50 was > 100 µM (inactive).

What about the GI50 (MOLT-4) of the same compound?
Its GI50 is > 100 µM (inactive).

What about the GI50 (SNB-19) of the same compound?
Its GI50 is > 100 µM (inactive).

And the GI50 (HOP-62)?
Its GI50 is 62.4 µM (inactive).

What about the GI50 (NCI-H226) of the same compound?
Its GI50 is > 100 µM (inactive).

What about the GI50 (SK-MEL-2) of the same compound?
The GI50 was 58.3 µM (inactive).

And the GI50 (UACC-257)?
The GI50 was > 100 µM (inactive).

And the GI50 (NCI-H460)?
The GI50 was 46.9 µM (inactive).

What about the GI50 (NCI-H522) of the same compound?
Its GI50 is > 100 µM (inactive).

And the GI50 (SW-620)?
Its GI50 is > 100 µM (inactive).

And the GI50 (LOX IMVI)?
The GI50 was > 100 µM (inactive).

What about the GI50 (SF-539) of the same compound?
Its GI50 is > 100 µM (inactive).

And the GI50 (CCRF-CEM)?
Its GI50 is > 100 µM (inactive).

What about the GI50 (DU-145) of the same compound?
Its GI50 is > 100 µM (inactive).

And the GI50 (UO-31)?
Its GI50 is 16.4 µM (inactive).

And the GI50 (ACHN)?
The GI50 was > 100 µM (inactive).

What about the GI50 (HCT-15) of the same compound?
Its GI50 is > 100 µM.

And the GI50 (SF-295)?
Its GI50 is 72.9 µM (inactive).

And the GI50 (COLO 205)?
The GI50 was 39.2 µM (inactive).

What about the GI50 (MDA-MB-231) of the same compound?
The GI50 was > 100 µM (inactive).

And the GI50 (SK-OV-3)?
Its GI50 is > 100 µM (inactive).

And the GI50 (MDA-N)?
Its GI50 is > 100 µM (inactive).

What about the GI50 (IGROV-1) of the same compound?
Its GI50 is > 100 µM (inactive).

And the GI50 (M14)?
The GI50 was 53.6 µM (inactive).

And the GI50 (OVCAR-4)?
The GI50 was 56.2 µM (inactive).

What about the GI50 (T47D) of the same compound?
Its GI50 is > 100 µM (inactive).

And the GI50 (TK-10)?
Its GI50 is > 100 µM (inactive).

What about the GI50 (SK-MEL-28) of the same compound?
Its GI50 is > 100 µM (inactive).

What about the GI50 (786-0) of the same compound?
Its GI50 is > 100 µM (inactive).

And the GI50 (MCF7)?
Its GI50 is 64 µM (inactive).

What about the GI50 (HCT-116) of the same compound?
Its GI50 is > 100 µM (inactive).

What about the GI50 (BT-549) of the same compound?
The GI50 was > 100 µM (inactive).

And the GI50 (OVCAR-8)?
The GI50 was > 100 µM (inactive).

What about the GI50 (OVCAR-5) of the same compound?
The GI50 was > 100 µM (inactive).

What about the GI50 (PC-3) of the same compound?
The GI50 was > 100 µM (inactive).

What about the GI50 (HCC 2998) of the same compound?
The GI50 was 59.6 µM (inactive).

And the GI50 (A549)?
The GI50 was 39.4 µM (inactive).

And the GI50 (HL-60)?
The GI50 was 95.1 µM (inactive).

And the GI50 (HT-29)?
The GI50 was 47.9 µM (inactive).
